In article PMC5633609, “Novel Peripherally Restricted Cannabinoid 1 Receptor Selective Antagonist TXX-522 with Prominent Weight-Loss Efficacy in Diet Induced Obese Mice” (Frontiers in Pharmacology, 2017):
Like-named read-outs stand apart in the source and are kept apart here.

Assays:
[1] = parameters: method as in earlier work; conditions: ref Chorvat et al., 2012, Klumpers et al., 2013, Knani et al., 2016, Lu et al.; cited from earlier work
DIO mice and rats = system: DIO mice and rats; parameters: method as in Alonso et al., 2012; Silvestri and Di Marzo, 2012; conditions: ref Alonso et al., 2012, Silvestri and Di Marzo; cited from earlier work
[2] = Steady state brain to plasma distribution after intravenous administration; type: in vivo, Sprague-Dawley rats; conditions: rat; for fraction of compound in the brain tissue: intravenous, steady state
Protocol: The compounds (2.5 mg/kg) were dissolved in 5% glucose solution containing polyoxyethylene castor oil (2.17%), 1,2-propanediol (0.56%), ethanol (0.75%), and medium chain triglycerides (0.48%) prior to intravenous administration to the Sprague-Dawley rats (n = 3), with an initial push of 0.3 mL at a speed of 75 mL/h, followed by 2.5 mL/h for 40 min. Retro-orbital blood samples (∼250 μL) were collected at defined time-points (0, 10, 15, 20, 25, 30, 35, and 40 min after dosing). The rats were then euthanized by decapitation, the brain and plasma samples were collected, and then stored at -80°C for subsequent assay. The plasma samples and whole rat brain, which had been homogenized with five volumes (v/w) of physiological saline on ice, were extracted by protein precipitation and analyzed using liquid chromatography-mass spectrometry/mass spectrometry, as previously reported ([Fulp et al., 2012]). The steady state Kp-value for each test compound was calculated and used as an index of brain penetration.

C57BL/6 mice [3] = test: WIN 55,212-2-induced hypothermia / body temperature; type: in vivo, C57BL/6J mice; conditions: for effect on WIN 55,212-2-induced hypothermia: oral, 1 h before WIN 55,212-2 3 mg/kg i.p., SR141716A 10 mg/kg, TXX-522 20 or 60 mg/kg, 30 min after WIN; for effect of compound alone on body temperature: TXX-522 alone, data not shown, WIN 55,212-2 3 mg/kg i.p.
Protocol: After a 7-day acclimation, body weight-matched male C57BL/6J mice (8-week-old) were randomly sorted into four different groups (n = 5 mice/group). […] The rectal temperature was monitored using a rectal probe coupled to a digital thermometer before and 30 min after treatment with WIN 55,212-2.

C57BL/6 mice [4] = test: Acute food intake (appetite) in fasted mice; type: in vivo; conditions: fasted C57BL/6 mice, oral; TXX-522 20 and 60 mg/kg, SR141716A 10 mg/kg; 3 h intake
Protocol: Mice (8-week-old) were maintained singly for 7 days with ad libitum access to a standard diet before testing. […] At 30 min post treatment, the mice were allowed access to rodent chow, and their food intake was measured for the subsequent 3 h.

DIO C57BL/6 mice = test: Anti-obesity study in DIO C57BL/6 mice; type: in vivo; conditions: for effect on food intake of DIO mice: 1st week of administration; for effect on fasting blood glucose and insulin levels: overnight-fasted; for effect on serum triglyceride and total cholesterol: end of treatment, SR141716A 5 mg/kg, TXX-522 10 mg/kg; for onset of statistically significant body weight difference / effect on body weight of DIO mice: oral gavage daily 4 weeks; for effect on body weight of DIO mice: SR141716A 5 mg/kg/day
Protocol: Male C57BL/6J mice (6-week-old) were maintained on a 12-h light/dark cycle at a controlled temperature (22 ± 1°C) and were fed a high-fat diet (45% fat, 18% protein, and 37% carbohydrate) for 20 weeks to establish the DIO mouse model ([Chen et al., 2010], [2011]). Age-matched standard diet-fed lean mice were used as the normal control group. […] Individual body weights and cage food consumption were measured daily. Oral glucose tolerance testing was performed on treatment day 23 on overnight-fasted mice while the serum glucose and insulin levels were assayed as described previously ([Chen et al., 2013]). At the end of the treatment period, the mice were fasted overnight prior to collecting blood samples for the analysis of serum triglycerides and total cholesterol levels as described previously ([Xie et al., 2015]). Furthermore, the intra-abdominal white adipose tissues (epididymal, lumbar, and perirenal) were removed and weighed.

human CB2R [5] = biological target: T1, human CB2R (Homo sapiens, UniProt P34972); test: Intracellular cAMP assay in CHO-hCB2 cells; type: cell-based; parameters: host or cells: CHO (CHO-hCB2R); conditions: even at 10 μmol/L
Protocol: (§1) The functional antagonism of the response to a CB1R agonist was previously detected in the CHO-hCB1R and CHO-hCB2R cell lines ([Chen et al., 2010], [2011]). Intracellular cAMP was analyzed in these cells using the LANCE cAMP 384 kit (AD0262, PerkinElmer, San Jose, CA, United States) following exposure to the vehicle or different concentrations of the test compounds (individually or combined) in the presence of a phosphodiesterase inhibitor (2.5 μmol/L 3-isobutyl-1-methylxanthine) for 30 min. The cAMP level detected in the vehicle-treated cells was set as 1, and the levels detected in the treated cells were expressed as fold changes compared to the control level.

human CB1R [6] = biological target: T2, human CB1R (Homo sapiens, UniProt P21554); type: cell-based
From the text: (§2) Commercial enhanced green fluorescent protein (EGFP)-CB1/CB2_U2OS cells specifically designed to screen CB1R/CB2R agonists or antagonists (Thermo Fisher Bioimage ApS, Soeborg, Denmark) were used to examine the antagonist activity and selectivity of TXX-522 for these CBR subtypes. […] Based on a previously described method ([Chen et al., 2011]), the regular EGFP-CB1/CB2_U2OS cell culture medium was replaced with F12 culture medium containing 1 μmol/L Hoechst 33342 (Invitrogen, OR, United States) before each experiment, and incubated for 20 min at 37°C. […] Dimethyl sulfoxide (DMSO, 0.1%) was used as the vehicle control. After further incubation for 2 h at 37°C, images of the cells were acquired using the IN Cell Analyzer 2000 (GE Healthcare, NJ, United States; 20× objective) and analyzed using the Granularity Analysis Module of the IN Cell. The inhibition ratio of each tested compound was expressed as percentage inhibition of the internalization induced by the reference CB1R/CB2R agonist, WIN 55,212-2. […] The results were obtained from three independent experiments each performed in triplicate.

human CB2R [7] = biological target: T1, human CB2R; test: Receptor internalization (redistribution) assay in EGFP-CB2_U2OS cells; type: cell-based; conditions: read-out: IC50 CB2R, antagonism of WIN 55,212-2-induced internalization
From the text: as §2

rat hippocampal neurons = test: Fluoro-3 AM Ca2+ imaging in hippocampal neurons; type: cell-based; conditions: 10 nmol/L to 10 μmol/L; WIN 55,212-2 1 μmol/L; concentration-dependent
Protocol: Hippocampal neurons were prepared from neonatal rats as described previously and intracellular Ca^2+ levels ([Ca^2+]i) were investigated ([Chen et al., 2010]). […] WIN 55,212-2 (1 μmol/L) was added 1 min later. The fluorescence was monitored and imaged using the IN Cell Analyzer 1000 and analyzed using the Object Intensity Analysis Module of IN Cell. The [Ca^2+]i time courses were monitored by recording the relative fluorescence intensity per cell vs. time.

DIO Kunming mice = test: Preliminary screening test in DIO Kunming mice; type: in vivo; conditions: 3-week treatment, 20 mg/kg, data not shown
From the text: Finally, we further evaluated the in vivo pharmacodynamic effects of TXX-522 in a commonly used mouse model of obesity.

human CB1R [8] = biological target: T2, human CB1R; type: binding; parameters: host or cells: CHO (CHO-hCB1R)
Protocol: (§3) The affinities of TXX-522 for the human CB1R and CB2R receptor were analyzed using Cerep cooperation (Celle l’Evescault, France) using stably transfected CHO cells (CHO-hCB1R and CHO-hCB2R, respectively) and a previously reported competitive binding assay ([Munro et al., 1993]; [Chen et al., 2011]). Non-specific binding was determined in the presence of 10 μmol/L non-radioactive WIN 55,212-2. […] Each competitive binding inhibition curve was generated using data pooled from three independent experiments each conducted in duplicate.

human CB2R [9] = biological target: T1, human CB2R; test: Competitive radioligand binding assay, CHO-hCB2R; parameters: host or cells: CHO (CHO-hCB2R); conditions: CHO-hCB2R cells; read-out: IC50, CB2 receptor competitive binding
Protocol: as §3

human CB1R [10] = biological target: T2, human CB1R; test: Intracellular cAMP assay in CHO-hCB1 cells; type: cell-based; parameters: host or cells: CHO (CHO-hCB1R)
Protocol: as §1

[11] = 2.5 mg/kg intravenous infusion, 40 min

T1 sequence (P34972 whole entry): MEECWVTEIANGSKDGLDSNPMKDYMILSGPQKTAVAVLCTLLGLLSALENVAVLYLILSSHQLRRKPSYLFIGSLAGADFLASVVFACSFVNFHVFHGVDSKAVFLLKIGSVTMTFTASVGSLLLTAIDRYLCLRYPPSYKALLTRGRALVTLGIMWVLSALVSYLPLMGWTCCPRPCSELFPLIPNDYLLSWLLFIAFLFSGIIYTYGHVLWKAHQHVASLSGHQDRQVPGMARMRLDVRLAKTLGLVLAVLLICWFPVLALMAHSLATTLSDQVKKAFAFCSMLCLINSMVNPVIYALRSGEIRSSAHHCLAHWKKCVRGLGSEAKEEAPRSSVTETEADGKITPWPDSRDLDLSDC
T2 sequence (P21554 whole entry): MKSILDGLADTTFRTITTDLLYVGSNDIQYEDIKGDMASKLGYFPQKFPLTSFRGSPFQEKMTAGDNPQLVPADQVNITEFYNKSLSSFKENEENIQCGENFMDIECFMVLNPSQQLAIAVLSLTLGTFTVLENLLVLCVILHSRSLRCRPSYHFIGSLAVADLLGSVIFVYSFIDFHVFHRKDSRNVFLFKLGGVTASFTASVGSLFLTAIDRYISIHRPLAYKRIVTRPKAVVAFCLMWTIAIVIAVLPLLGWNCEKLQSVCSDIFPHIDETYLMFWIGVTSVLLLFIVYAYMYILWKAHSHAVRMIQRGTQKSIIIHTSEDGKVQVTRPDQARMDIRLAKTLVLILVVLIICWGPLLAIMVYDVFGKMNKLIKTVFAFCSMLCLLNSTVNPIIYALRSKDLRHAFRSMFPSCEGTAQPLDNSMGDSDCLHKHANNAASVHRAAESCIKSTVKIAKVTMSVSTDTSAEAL

Molecule | anorexia in DIO mice and rats (DIO mice and rats) | fraction of compound in the brain tissue [2] [%] | effect on WIN 55,212-2-induced hypothermia (C57BL/6 mice [3]) | effect on acute food intake (C57BL/6 mice [4]) | effect on food intake of DIO mice (DIO C57BL/6 mice) | effect on fasting blood glucose and insulin levels (DIO C57BL/6 mice; DIO mice) | effect on serum triglyceride and total cholesterol (DIO C57BL/6 mice) | onset of statistically significant body weight difference (DIO C57BL/6 mice) | effect on body weight of DIO mice (DIO C57BL/6 mice; TXX-522 5 or 10 mg/kg/day) | effect on intracellular cAMP level in CHO-hCB2 cells (human CB2R [5]) | effect of compound alone on body temperature (C57BL/6 mice [3]) | also measured
CC(C)[C@H](N=C(NS(=O)(=O)c1ccc(Cl)cc1)N1C[C@H](c2ccccc2)C(c2ccc(Cl)cc2)=N1)C(N)=O [JD-5037] | induced anorexia | – | – | – | – | – | – | – | – | – | – | brain to plasma distribution ratio (Kp) [1]: < 1
CCCCCCc1nc(-c2ccc(Cl)cc2)n(-c2ccc(Cl)cc2Cl)n1 [LH-21] | induced anorexia | – | – | – | – | – | – | – | – | – | – | –
Cc1c(C(=O)NN2CCCCC2)nn(-c2ccc(Cl)cc2Cl)c1-c1ccc(Cl)cc1 [SR141716A, reference compound] | – | > 60 | reversed | significantly inhibited food intake | reduced food intake | dramatically decreased | notably reduced hypertriglyceridemia | from day 4 onward | significant reduction | neither TXX-522 nor SR141716A affected | – | Kp at 40 min ([2]; Sprague-Dawley, brain and plasma, 2.5 mg/kg intravenous infusion, read-out: Kp (brain to plasma distribution ratio, steady state)): 1.67
Cc1c(C(=O)c2cccc3ccccc23)c2cccc3c2n1[C@H](CN1CCOCC1)CO3 [WIN 55,212-2, reference compound] | – | – | – | – | – | – | – | – | – | – | notably decreased the body temperature | –
(5-(4-chlorophenyl)-1-(2, 4-dichlorophenyl)-4-methyl-1H-pyrazol-3-yl) (piperidin-1-yl) methanone [TXX-522] | – | 2 | did not block | did not affect acute food consumption | no anorexia | dramatically decreased | lowered both serum triglyceride and total cholesterol levels | from 2 weeks | dose-dependently decreased | neither TXX-522 nor SR141716A affected | did not affect the body temperature | IC50 (human CB1R [6]; EGFP-CB1_U2OS cells, WIN 55,212-2 1 μmol/L, read-out: IC50 CB1R, antagonism of WIN 55,212-2-induced internalization): 10.3 ± 6.08 nM; CB2R/CB1R selectivity (internalization IC50 ratio) (human CB1R [6]; EGFP-CB1_U2OS vs EGFP-CB2_U2OS cells): >968; IC50 (human CB2R [7]): > 10000 nM; Kp (brain to plasma distribution ratio, steady state) ([2]; 2.5 mg/kg intravenous infusion): 0.02; steady state concentration in brain [2, 11]: 528.9 ± 1.6 ng/mL; steady state concentration in plasma [2, 11]: 23323.0 ± 267.8 ng/mL; effect on elevation and oscillation of [Ca2+]i elicited by WIN 55,212-2 (rat hippocampal neurons): blocked; effect on insulin resistance and hyperinsulinemia (DIO C57BL/6 mice; 5 mg/kg): ameliorated the insulin resistance and hyperinsulinemia more than the same dose of SR141716A did; adverse effects / apparent signs of toxicity (DIO C57BL/6 mice; DIO mice, 4 weeks, TXX-522 5 or 10 mg/kg/day): no adverse effects; weight loss and abdominal fat decrease by the end of the study (DIO C57BL/6 mice; chronic treatment, 5 and 10 mg/kg, compared with SR141716A): comparable efficacy to that of SR141716A; oral glucose tolerance testing (DIO C57BL/6 mice; treatment day 23, 5 mg/kg): ameliorated glucose intolerance more than the same dose of SR141716A did; effect on body weight and fat mass (DIO Kunming mice): significantly reduced body weight and fat mass; IC50 (human CB1R [8]; CHO-hCB1R cells, radioligand [3H]-CP 55,940 or [3H]-SR141716A, read-out: IC50, CB1R competitive binding): 170 nM; Ki (human CB1R [8]; CHO-hCB1R cells, radioligand [3H]-CP 55,940 or [3H]-SR141716A, read-out: Ki, CB1R competitive binding): 150 nM; selectivity ratio (CB1R over CB2R, binding) (human CB1R [8]; from radioligand binding values): 176; IC50 (human CB2R [9]): > 30000 nM; reversal of WIN 55,212-2-induced inhibition of forskolin-stimulated cAMP accumulation (human CB1R [10]; WIN 1 μmol/L, forskolin 0.1 μmol/L): dose-dependently reversed; maximum effect on cAMP (human CB1R [10]; at 10 μmol/L with forskolin plus WIN): equivalent to that induced by forskolin alone; effect of compound alone on forskolin-induced cAMP level (inverse agonism) (human CB1R [10]; up to 10 μmol/L, data not shown): no further increase
